Reference: patent US20230285498A1, “TREATMENTS FOR CANCERS HAVING KRAS MUTATIONS” (City of Hope, priority 2020, published 2023)

Key:
[1] = system: ITGB4-overexpressing H23 cells; experiment: Cell proliferation, ITGB4-overexpressing cells; assay type: cell-based; details: Homo sapiens, NCI-H23
[2] = system: WNT2, CFTR and CCL2 expression in H23 cells; experiment: qPCR validation of RNAseq; assay type: cell-based
Description: The drug treatment what initiated at dose of 1 μM which was finally raised up to 7.5 μM. […] Further, using qPCR assay we validated the RNAseq data and observed more than 40 fold induction in expression of various genes such as WNT2, CFTR and CCl2. (FIGS. 17D-17F). Further the analysis also identified activation of MYC and E2F Target Hall Mark Pathways which may help H23 cells in withstanding drug toxicity (data not shown).
Quantitative real-time PCR and RNAseq: Quantitative real-time PCR (qPCR) reactions were performed using TaqMan Universal PCR Master Mix (Thermo Fisher Scientific, Waltham, Mass.) and analyzed by the Quant Studio? Real-time PCR system (Life Technologies, Grand Island, N.Y.). Total RNA isolation and on-column DNase digestion from cells were performed basing on the manufacturer's protocol RNeasy Plus Mini Kit (Qiagen Cat #: 74134). 1 ug of RNA was used to synthesize the cDNA according to the one step cDNA synthesis kit from QuantaBio (Cat #: 101414-106). TaqMan probes were purchased from ThermoFisher (Waltham, Mass.). The mRNA expression was analyzed using multiplex PCR for the gene of interest and GAPDH as a reference using two independent detection dyes FAM probes and VIC probes respectively. Relative mRNA expression was normalized to GAPDH signals and calculated using the delta Ct method.

[3] = system: SW1573; experiment: Drug combination synergy assay (inhibition matrix); assay type: cell-based; details: Homo sapiens, read-out: inhibition of cell growth
Description: The synergy finder codes were used to determine the synergy between drugs for 48 possible combinations. The codes were run using the R-platform and synergy was calculated and represented as the synergy landscape.
Drug Combination Synergy Assay: For combination index (CI) calculation, SW1573 and H23 incured cell lines were seeded in 96-well plate with 5000 cells per well. Three biological replicates (three 96-well plates for each drug combination) were used. […] The drugs were used in linear dilution series with dilution factor of 2. […] Further, R package called SynergyFinder (He et al., 2018) was used to find the nature of drug-drug interaction (i.e. if they work in synergy or antagonistically or non-interactively). For this purpose, the drug response matrix is supplied to the mentioned package, which then uses several models namely Highest Single Agent (Berenbaum, 1989), Loewe additivity (Loewe, 1953), Bliss independence (Bliss, 1939) and Zero Interaction Potency (Yadav et al., 2015) to quantify the degree of drug synergy. The dose response matrix was used to calculate individual CI values for IC30, IC50 and IC70 drug treatments. The output values were used to plot isobolograms using the following formula. CI=IC50 (A) pair IC50 (A)+IC50 (B) pair IC50 (B)

[4] = system: SW1573 cells; experiment: Zebrafish larvae SW1573 xenotransplant; assay type: in vivo
Description: The inventors microinjected SW1573 cells into the perivitelline space of 48 hour post-fertilization (hpf) zebrafish larvae.

[5] = system: SW1573 cells; experiment: Cell cycle analysis (FACS); assay type: cell-based; details: 20 μM, 72 hours
Description: Using commercially available lentiviral particles (Essen Bioscience Inc.), a SW1573 stable cell line was developed to determine the dynamics of the cell cycle in response to the KRAS inhibitors. In the G1 phase, these cells express the red fluorescent protein and in G2, they express the green fluorescent protein, and cells transitioning from G1 to […], express both the proteins giving rise to yellow florescence.
Cell cycle analysis. […] The stable cell line was generated using the puromycin selection media. Yellow cells are indicative of cell cycle transition from G1 to S while non-fluorescent cells are moving from M to G1.

[6] = system: SW1463; experiment: Cell proliferation, colorectal G12C homozygous cell line; assay type: cell-based; details: Homo sapiens, SW1463, read-out: inhibition of proliferation
Description: For this experiment the inventors chose SW837 and SW1463 colorectal cell line. The SW837 cell is heterozygous for the G12C mutation whereas the SW1463 is homozygous for the G12C mutation. A stable cell line expressing mKATE2 for Incucyte live cell imaging and analysis was generated.

[7] = system: H23 sotorasib (20 μM)-resistant cells; experiment: Cell proliferation, isogenic sotorasib resistant line; assay type: cell-based; details: ITGB4/β-catenin double knockdown together with sotorasib; 96 hours
Description: Next, it was sought to determine cell proliferation changes with the combination treatment.

[8] = system: SW1573 NSCLC cells; experiment: Mouse SW1573 xenograft; assay type: in vivo, Athymic nude nu/nu mice; details: sotorasib 10 mg/kg, adagrasib 10 mg/kg, carfilzomib 2 mg/kg; oral gavage twice a week; day 56
Description: Mouse xenograft studies. Athymic nude nu/nu mice were obtained from Charles River, Wilmington, Mass., and were acclimated for a week before beginning the experiment. All animal experiments were carried out in accordance with a protocol approved by the Institutional Animal Care and Use Committee (IACUC #16004). […] All 40 animals were injected with 1×10^6 SW1573 cells suspensions in 100 μl of PBS, subcutaneously into one flank of each mouse. At the same time, animals were randomized into treatment groups. Treatment was started 12 days after the SW1573 NSCLC cells implantation to see palpable tumor growth. Treatments were given to mice via oral gavage twice a week for 8 weeks. Animals were examined daily for signs of tumor growth. Tumors were measured in two dimensions using calipers and body weights were recorded. Photographs of animals were taken at day 1, day 7, day 14, day 21, day 28, day 35, day 42, day 49, and day 56 after treatment. Photographs of tumors were also taken at day 56 after treatment. At the end of the study, the mice were euthanized by CO2 asphyxiation followed by cervical dislocation. The tumor weights were compared between groups using an unpaired Student's t-test. A portion of the tumor was fixed in 10% buffered formaldehyde solution and paraffin-embedded for immuno-staining or was snap-frozen in liquid nitrogen for further molecular analysis such as western blotting.

## C=CC(=O)N1CCN(c2nc(=O)n(-c3c(C)ccnc3C(C)C)c3nc(-c4c(O)cccc4F)c(F)cc23)[C@@H](C)C1 [sotorasib]
[1]
  inhibition at 10 µM: 5%
[2]
  induction in expression of WNT2, CFTR and CCL2 (qPCR): more than 40 fold
[3]
  inhibition at 16 µM: ~10%
[4]
  most effective dose, drug alone (obliterates SW1573 cells): 12 µM
  toxic dose, drug alone: 18 µM
[5]; from 26%
  G2 population: 11%
[5]; from about 39%
  G1 population: 62%
[6]
  inhibition at 10 µM: 40%
[7]
  sensitization of isogenic resistant line: 70%
[8]
  reduction in tumor area: about 52%
